US11484601B2, “Targeting M2-like tumor-associated macrophages by using melittin-based proapoptotic peptide” (TWI[…]., priority 2018, dated 2022)

Experiments:
[1] = tested on: M2 macrophage (RAW264.7 differentiated into M2-type with IL-4 and IL-13); assay: MTS cell viability assay, M2-type macrophage; assay type: cell-based, mouse; settings: 24 hours, read-out: half-maximal inhibitory concentration (IC50) against M2 macrophage
Method: (§1) More specifically, dKLA (SEQ ID NO: 2), MEL (SEQ ID NO: 1), MEL-dKLA (SEQ ID NO: 3; […]-d[KLAKLAKKLAKLAK]) peptide and 5-carboxyl tetramethylrhodamine (TMR)-conjugated dKLA, MEL and MEL-KLA peptides were purchased from GenScript (Piscataway, N.J., USA). TMR was conjugated with the amino group located at the N-terminal of the peptide. Regarding all of the peptides, 95% or greater purified peptides were used. Murine Lewis lung carcinoma (LLC) cells and macrophage RAW264.7 of mice were cultured in Dulbecco's modified Eagle's medium (DMEM; Welgene, Korea) to which 10% heat-inactivated fetal bovine serum (Welgene), 100 U/mL penicillin and 100 μg/mL streptomycin (Invitrogen, CA, USA) were added. Macrophage (RAW264.7) differentiated into M2-type was treated with IL-4 and IL-13 in the medium for 24 hours. After the treatment, the cells were cultured in a state in which serum was insufficient for 48 hours. M1-type macrophage was treated with 1 ng/mL of LPS for 24 hours to induce differentiation.
(§2) The cell viability test was measured via the MTS assay. RAW264.7 macrophage was differentiated into M1-type or M2-type macrophage which was inoculated onto a 96-well plate at 3×10^4 cells/well. The next day, the macrophage was treated with each of PBS, dKLA, MEL and MEL-dKLA. After 24 hours, the culture solution was replaced and the cell was treated with 20 μL MTS reaction solution (Promega, WI, USA), followed by reaction at 37° C. Then, […] was measured at 490 nm to measure cell viability.
(§3) The MEL-DM1 anticancer drug conjugation method and cell test method are as described above.

[2] = MTS cell viability assay, M2-type macrophage; assay type: cell-based, mouse; settings: mouse, M2 macrophage, 0.6 to 0.5 μM, reaction for 24 hours
Method: as §1, §2, §3

[3] = tested on: M1-type tumor-associated macrophage (CD45+F4/80+CD86+); assay: Flow cytometry of tumor tissue, M1-type TAM; assay type: in vivo, mouse; settings: MEL vs PBS and dKLA groups; MEL-dKLA vs MEL group
Method: More specifically, the tumor cells were thinly crushed and separated from each other in DMEM to which DNasel (1 U/mL) and collagenase D (1 mg/mL) were added. The tissue was gently agitated for 1 hour at 37° C., and separated using a […] nylon mesh filter. Red blood cells were dissolved in Phrmlyse buffer (BE bioscience). Individual cells passed through a 40-μm nylon mesh filter and then were stained with following antibodies: CD4+ T cell (CD45+CD4+CD8−), CD8+ T cell (CD45+CD4−CD8+), Foxp3+ regulatory T cell (CD4+CD25+Foxp3+), dendritic cell (CD45+CD11b+CD11c+), and M1 (CD45+F4/80+CD86+) or M2 macrophage (CD45+F4/80+CD206+): anti-CD45-FITC, anti-CD4-phycoerythrin (PE), anti-CD8-allophycocyanin (APC), anti-CD4-FITC, anti-CD25-PE, anti-Foxp3-Alexa Fluor647, anti-CD11b-APC, anti-CD11c-APCcy7, anti-Grl-PEcy7, anti-CD86-PEcy7, and anti-CD206-APC antibodies. Annexin-V was previously treated to measure the cell percentage of macrophages.

[4] = MTS cell viability assay, M1-type macrophage; assay type: cell-based; settings: mouse, RAW264.7 macrophages differentiated into M1-type with LPS, 0.6 to 0.8 μM
Method: as §1
as §2, with “After 24 hours, the culture solution was replaced and the cell was treated with 20 μL MTS reaction solution (Promega, WI, USA), followed by reaction at 37° C.” left out

M1 macrophage = assay: Annexin V-FITC / MitoTracker flow cytometry, M1 macrophage; assay type: cell-based, mouse; settings: 0.8 μM peptide
Method: More specifically, the cells were stained with Annexin V-fluorescein isothiocyanate (FITC; BD Biosciences, CA, USA) and MitoTracker RedBOX (Invitrogen). The cells were inoculated at 5×10^5 cells/well, onto a 24-well plate. The next day, 0.8 μM peptide was applied thereto. In 1, 3 and 6 hours after the application, the cells were reacted with 250 nM MitoTracker for 1 hour in a serum-free culture solution. Thereafter, the cells were collected and reacted with Annexin V again. The reacted cells were measured with BD FACSCalibur, and were analyzed via FlowJo software (Treestar, Inc., CA, USA). MitoTracker could pass through protoplasmic membrane depending on the membrane charge and then accumulated within the mitochondria. In other words, staining may be identified in the mitochondria membrane of living cells, but staining may be difficult in cells where apoptosis occurs due to membrane disturbance.

[5] = tested on: CD31+ endothelial cells of LLC tumors; assay: CD31 immunofluorescence staining of tumor endothelial cells; assay type: in vivo, mouse; settings: LLC tumor sections
Description: CD31 (PECAM-1) is […] the vascular endothelium, and is well-known as a marker that may indicate angiogenesis. The angiogenesis in tumors is essential means to supply oxygen and nutrients to areas at a low oxygen level in the tumor and thus is closely related to cancer growth and metastasis. M2-type macrophages are major precursors of angiogenic factors, and contain cyclooxygenase-2, matrix metalloproteinase-9 and VEGF. The density of macrophage is related to angiogenesis. Therefore, immunostaining was performed and a confocal device was used to identify whether a decrease in the M2-type tumor-associated macrophage (TAM) in a tumor causes a decrease in angiogenesis.
More specifically, the tissue was […] with paraformaldehyde for 24 hours. Then, the tissue was cut into sections having 4 μm thickness using a rotary microtome, which in turn was restored via autoclaving under pressure for 1 minute with tri-sodium citrate buffer. […] After the staining, the sections were mounted on and analyzed using a laser scanning confocal microscope (Carl Zeiss). All images are taken using LSMS PASCAL, and fluorescence values were analyzed using ImageJ software.

CC[C@H](C)[C@H](NC(=O)CN)C(=O)NCC(=O)N[C@@H](C)C(=O)N[C@H](C(=O)N[C@@H](CC(C)C)C(=O)N[C@@H](CCCCN)C(=O)N[C@H](C(=O)N[C@@H](CC(C)C)C(=O)N[C@H](C(=O)N[C@H](C(=O)NCC(=O)N[C@@H](CC(C)C)C(=O)N1CCC[C@H]1C(=O)N[C@@H](C)C(=O)N[C@@H](CC(C)C)C(=O)N[C@H](C(=O)N[C@@H](CO)C(=O)N[C@@H](Cc1c[nH]c2ccccc12)C(=O)N[C@H](C(=O)N[C@@H](CCCCN)C(=O)N[C@@H](CCCNC(=N)N)C(=O)N[C@@H](CCCCN)C(=O)N[C@@H](CCCNC(=N)N)C(=O)N[C@@H](CCC(N)=O)C(=O)N[C@@H](CCC(N)=O)C(N)=O)[C@@H](C)CC)[C@@H](C)CC)[C@@H](C)O)[C@@H](C)O)C(C)C)C(C)C [MEL]
IC50 [1]: 600 to 800 nM
viability at 24 h [2]: 71 to 79%
F480+ CD86+ M1-type tumor-associated macrophage in tumor [3]: slightly increased
viability at 24 h [4]: 74%
Annexin V / MitoTracker staining effect on M1 macrophage (M1 macrophage; 1 to 3 hours): the effect did not appear
Annexin V / MitoTracker staining change in M1 macrophage (M1 macrophage; 6 hours): no significant change
CD31+ endothelial cells (blood vessel density) [5]: significant decrease
